{"source": "paper PMC5371393", "about": "(Journal of Medicinal Chemistry, 2016)", "key": {"[1]": {"target": "nucleotide-binding domain (NBD) of human HSC70 (HSC70-NBD residues 1–381) (Homo sapiens, UniProt P11142)", "sequence (P11142 1-381)": "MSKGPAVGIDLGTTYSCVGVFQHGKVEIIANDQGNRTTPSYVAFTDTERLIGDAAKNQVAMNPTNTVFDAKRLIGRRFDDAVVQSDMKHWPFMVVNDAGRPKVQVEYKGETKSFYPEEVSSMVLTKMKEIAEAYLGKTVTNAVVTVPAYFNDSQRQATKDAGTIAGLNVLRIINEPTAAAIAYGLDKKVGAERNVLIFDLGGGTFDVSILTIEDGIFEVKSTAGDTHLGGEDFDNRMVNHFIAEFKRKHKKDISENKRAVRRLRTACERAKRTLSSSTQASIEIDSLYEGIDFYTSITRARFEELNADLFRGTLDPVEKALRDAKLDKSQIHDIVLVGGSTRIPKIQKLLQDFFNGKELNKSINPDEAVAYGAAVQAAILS", "test": "SPR affinity against immobilised HSC70-NBD", "conditions": "for fold increase in affinity compared to adenosine 1: comparator adenosine 1; for binding / affinity in words: SPR, HSC70-NBD, concentrations up to 1 mM; for fold improvement in affinity compared to 8-N-methylaminoadenosine 4: comparator 4 (Table 1, entry 2)"}, "[2]": {"target": "HSP70", "conditions": "previously described affinity of ADP for HSP70; cited from earlier work"}}}
{"smiles": "Nc1ncnc2c1nc(N)n2[C@@H]1O[C@H](CO)[C@@H](O)[C@H]1O", "note": "[Compound 3, 8-aminoadenosine, reference compound]", "values": [{"measurement": "fold increase in affinity compared to adenosine 1", "setting": "[1]; SPR KD", "result": 16, "unit": "fold"}]}
{"smiles": "CNc1nc2c(N)ncnc2n1[C@@H]1O[C@H](CO)[C@@H](O)[C@H]1O", "note": "[Compound 4, (2R,3R,4S,5R)-2-(6-Amino-8-(methylamino)-9H-purin-9-yl)-5-(hydroxymethyl)tetrahydrofuran-3,4-diol]", "values": [{"measurement": "fold drop in affinity compared to 8-aminoadenosine 3", "setting": "[1]; SPR KD, comparator 3", "result": 2.5, "unit": "fold"}]}
{"smiles": "COc1nc2c(N)ncnc2n1[C@@H]1O[C@H](CO)[C@@H](O)[C@H]1O", "note": "[Compound 6, (2R,3R,4S,5R)-2-(6-Amino-8-methoxy-9H-purin-9-yl)-5-(hydroxymethyl)tetrahydrofuran-3,4-diol]", "values": [{"measurement": "binding / affinity in words", "setting": "[1]", "result": "complete loss of activity"}]}
{"smiles": "CNc1nc2c(N)ncnc2n1[C@@H]1O[C@H](C)[C@@H](O)[C@H]1O", "note": "[Compound 7, (2R,3R,4S,5R)-2-(6-Amino-8-(methylamino)-9H-purin-9-yl)-5-methyltetrahydrofuran-3,4-diol]", "values": [{"measurement": "fold drop in affinity compared with 8-N-methylaminoadenosine 4", "setting": "[1]; SPR KD, comparator 4", "result": 1.6, "unit": "fold"}]}
{"smiles": "Nc1ncnc2c1ccn2[C@@H]1O[C@H](CO)[C@@H](O)[C@H]1O", "note": "[Compound 8, Tubercidin, reference compound]", "values": [{"measurement": "fold increase in affinity compared to adenosine 1", "setting": "[1]; SPR KD", "result": 4, "unit": "fold"}]}
{"smiles": "N#Cc1cn([C@@H]2O[C@H](CO)[C@@H](O)[C@H]2O)c2ncnc(N)c12", "note": "[Compound 9, Toyocamycin, reference compound]", "values": [{"measurement": "binding / affinity in words", "setting": "[1]", "result": "comparable affinity to adenosine 1"}]}
{"smiles": "NC(=O)c1cn([C@@H]2O[C@H](CO)[C@@H](O)[C@H]2O)c2ncnc(N)c12", "note": "[Compound 10, Sangivamycin, reference compound]", "values": [{"measurement": "fold increase in affinity compared to adenosine 1", "setting": "[1]; SPR KD", "result": 35, "unit": "fold"}, {"measurement": "half-life", "setting": "[1]; SPR off-rate analysis", "result": "too short to be observed"}]}
{"smiles": "CNc1c(C#N)c2c(N)ncnc2n1[C@@H]1O[C@H](CO)[C@@H](O)[C@H]1O", "note": "[Compound 12, 4-Amino-7-((2R,3R,4S,5R)-3,4-dihydroxy-5-(hydroxymethyl)tetrahydrofuran-2-yl)-6-(methylamino)-7H-pyrrolo[2,3-d]pyrimidine-5-carbonitrile]", "values": [{"measurement": "fold improvement in affinity compared to 8-N-methylaminoadenosine 4", "setting": "[1]; SPR KD", "result": 5, "unit": "fold"}, {"measurement": "fold improvement in activity compared to toyocamycin 9", "setting": "[1]; SPR KD, comparator 9", "result": 27, "unit": "fold"}]}
{"smiles": "CNc1c(C(N)=O)c2c(N)ncnc2n1[C@@H]1O[C@H](CO)[C@@H](O)[C@H]1O", "note": "[Compound 13, 4-Amino-7-((2R,3R,4S,5R)-3,4-dihydroxy-5-(hydroxymethyl)tetrahydrofuran-2-yl)-6-(methylamino)-7H-pyrrolo[2,3-d]pyrimidine-5-carboxamide]", "values": [{"measurement": "fold drop in affinity compared to sangivamycin 10", "setting": "[1]; SPR KD, comparator 10", "result": 7, "unit": "fold"}]}
{"smiles": "N#Cc1c(NCc2ccccc2)n([C@@H]2O[C@H](CO)[C@@H](O)[C@H]2O)c2ncnc(N)c12", "note": "[Compound 14, 4-Amino-6-(benzylamino)-7-((2R,3R,4S,5R)-3,4-dihydroxy-5-(hydroxymethyl)tetrahydrofuran-2-yl)-7H-pyrrolo[2,3-d]pyrimidine-5-carbonitrile]", "values": [{"measurement": "binding / affinity in words", "setting": "[1]", "result": "little change in affinity"}]}
{"smiles": "Nc1ncnc2c1nc(NCc1ccccc1)n2[C@@H]1O[C@H](CO)[C@@H](O)[C@H]1O", "note": "[Compound 15, (2R,3R,4S,5R)-2-(6-Amino-8-(benzylamino)-9H-purin-9-yl)-5-(hydroxymethyl)tetrahydrofuran-3,4-diol]", "values": [{"measurement": "fold improvement in affinity compared to 8-N-methylaminoadenosine 4", "setting": "[1]; SPR KD", "result": 12, "unit": "fold"}]}
{"smiles": "Nc1ncnc2c1ncn2[C@@H]1O[C@H](COP(=O)(O)OP(=O)(O)O)[C@@H](O)[C@H]1O", "note": "[Compound 16, adenosine diphosphate]", "values": [{"measurement": "Kd", "setting": "[2]", "result": 500, "unit": "nM"}]}
{"smiles": "Nc1ncnc2c1nc(NCc1ccc(Cl)cc1)n2[C@@H]1O[C@H](CO)[C@@H](O)[C@H]1O", "note": "[Compound 18, (2R,3R,4S,5R)-2-(6-Amino-8-((4-chlorobenzyl)amino)-9H-purin-9-yl)-5-(hydroxymethyl)tetrahydrofuran-3,4-diol]", "values": [{"measurement": "fold improvement in affinity compared to 8-N-methylaminoadenosine 4", "setting": "[1]; SPR KD", "result": 60, "unit": "fold"}, {"measurement": "fold improvement in affinity compared to compound 15", "setting": "[1]; SPR KD, comparator 15", "result": 5, "unit": "fold"}]}
